In patent publication US20230293478A1, “NITROGEN-CONTAINING ANALOGS OF SALINOMYCIN FOR USE IN ACUTE MYELOID LEUKEMIA” (Centre National de la Recherche Scientifique (CNRS), priority 2020, published 2023):

Columns and labels:
KG1 = experiment: IC50 determination (resazurin), KG1; assay type: cell-based; settings: Homo sapiens, KG-1; KG1 cell line, 72 hours
Procedure: (§1) Cells were seeded at a constant density prior to treatment in triplicate and treated with either ironomycin or DMSO over the indicated time period. Drug was refreshed at least every two days. Cells were stained with DAPI and live cell number was calculated using the BD FACSVerse (BD Biosciences). CellTitreGlo (Promega) assays were performed as per manufacturer's instructions in a 96 well plate format. To determine the half-maximal inhibitory concentration (IC50) for ironomycin, 24 h after seeding the cells at a constant density in triplicate, cells were treated with ironomcyin or DMSO for 72 hours. At day 3, after incubating the cells with 600 μM of resazurin for 6 h, fluorescence was measured at λex=530 nm and λem=590 nm, using a Microplate Reader (EnSpire, Perkin Elmer). Relative fluorescence units were converted to per cent of inhibition relative to controls on the same plate, and the data were fitted against a four-parameter logistic model to determine the IC50.

KASUMI-1 = experiment: IC50 determination (resazurin), KASUMI-1; assay type: cell-based; settings: Homo sapiens; KASUMI-1 cell line, 72 hours
Procedure: as §1

HL-60 = experiment: IC50 determination (resazurin), HL-60; assay type: cell-based; settings: Homo sapiens; HL-60 cell line, 72 hours
Procedure: as §1

NOMO-1 = experiment: IC50 determination (resazurin), NOMO-1; assay type: cell-based; settings: Homo sapiens; NOMO-1 cell line, 72 hours
Procedure: as §1

SKM-1 = experiment: IC50 determination (resazurin), SKM-1; assay type: cell-based; settings: Homo sapiens; SKM-1 cell line, 72 hours
Procedure: as §1

NB4 = experiment: IC50 determination (resazurin), NB4; assay type: cell-based; settings: Homo sapiens, NB-4; NB4 cell line, 72 hours
Procedure: as §1

MV4-11 = experiment: IC50 determination (resazurin), MV4-11; assay type: cell-based; settings: Homo sapiens; MV4-11 cell line, 72 hours
Procedure: as §1

MOLM-13 = experiment: IC50 determination (resazurin), MOLM-13; assay type: cell-based; settings: Homo sapiens; MOLM-13 cell line, 72 hours
Procedure: as §1

OCI-AML3 = experiment: IC50 determination (resazurin), OCI-AML3; assay type: cell-based; settings: Homo sapiens, OCI-AML-3; OCI-AML3 cell line, 72 hours
Procedure: as §1

HEL 92.1.7 = experiment: IC50 determination (resazurin), HEL 92.1.7; assay type: cell-based; settings: Homo sapiens; HEL 92.1.7 cell line, 72 hours
Procedure: as §1

K 562 = experiment: IC50 determination (resazurin), K 562; assay type: cell-based; settings: Homo sapiens, K562; K 562 cell line, 72 hours
Procedure: as §1

human AML cell lines = experiment: IC50 determination across various human AML cell lines; assay type: cell-based; settings: range over various human AML cell lines, 72 hours; read-out: Half maximal inhibitory concentration (IC50)
Procedure: as §1

AML cell lines = experiment: Cell proliferation and PI cell death in AML cell lines; assay type: cell-based, human; settings: all AML cell lines tested
Procedure: as §1
(§2) Cell death, cells were washed once with PBS and assessed using propidium iodide PI from staining (Sigma) according to manufacturer's instructions. Lipid peroxidation was assessed with BODIPYC11 staining (Thermo Fisher D3861). Cell were washed once with PBS and stained for 30 minutes in the dark at room temperature in 1 ml of 7.5 μM PBS solution, washed once and assessed according to manufacturer's instructions. […]

[1] = test system: MV4,11 cells transplanted into NSG mice; experiment: AML xenograft model, survival; assay type: in vivo, mouse; settings: 5 days/week for 4 weeks, single agent
Procedure: Ironomycin was dissolved in PBS+2.5% DMSO. […] Animals were euthanized at the completion of treatment.

[2] = test system: cleaved PARP1 and cleaved caspase 3 in MOLM-13 cell line; experiment: Immunoblot of cleaved PARP1 and cleaved caspase 3; assay type: cell-based, human; settings: 500 nM, 24 h
Procedure: Cells were lysed in 20 mM HEPES pIH7.9, 0.5 mM EDTA, 2% SDS plus 1× protease inhibitor cocktail (Roche) by brief sonication. Lysates were heated to 95° C. in SDS sample buffer with 50 mM DTT for 5 min, separated by SDS-PAGE and transferred to PVDF membrane (Millipore). Membranes were blocked in 5% milk or BSA in TBS +0.1% Tween-20, probed with the indicated antibodies, and reactive bands visualised using ECL Prime (GE).

WT MV4; 11 cell line [3] = experiment: Cell death analysis (PI, Cell titer glow) in WT MV4;11; assay type: cell-based, human; settings: 24 h
Procedure: as §1, §2

[4] = test system: lysosomal iron in MOLM13 cells; experiment: Lysosomal iron, RhoNoxM probe flow cytometry; assay type: cell-based, human
Procedure: Ironomycin (AM5) and AM23 were synthesized as previously described (Mai et al., 2017), venetoclax (ABT-199), biranapant and IDN-6556 are commercially available. Metformin and phenformin, were purchased from sigma (PHR1084 and PHR1573) and reconstituted freshly in culture medium. Turn-off Fe2+ probe (Petrat et al., 2002) was synthesized as previously reported (Muller et al., 2018), dose was 1 μM for 1 h for flow cytometry experiments. RhonoxM (Hirayarna et al., 2013) was synthesized as previously reported (Mai et al., 2017), dose was 1 μM, 1 h for flow cytometry experiments. Liproxstatin-1 (sigma SML1414, DMSO), ferrostatin (sigma SML0583, DMSO), RSL3 (sigma SML2234, DMSO), 6 aminonicotidamide (sigma A68203, DMSO), Z-VADfmk (R&D system FMK001, DMSO).

[5] = test system: mitochondrial iron in MOLM13 cells; experiment: ICP-MS iron on isolated mitochondria; assay type: cell-based, human; settings: ICP-MS on isolated mitochondria after treatment
[6] = test system: mitochondrial ROS in MV4; 11 and OCI-AML3; experiment: Mitochondrial ROS, Mitosox Red flow cytometry; assay type: cell-based, human; settings: 500 nM, 24 hours
[7] = test system: lipid ROS in OCIAML3 and MOLM-13 cells; experiment: Lipid peroxidation, C11 BODIPY 581/591 staining; assay type: cell-based, human; settings: 500 nM, 48 hours
Procedure: (§3) Cell death, cells were washed once with PBS and assessed using propidium iodide PI from staining (Sigma) according to manufacturer's instructions. Lipid peroxidation was assessed with BODIPYC11 staining (Thermo Fisher D3861). Cell were washed once with PBS and stained for 30 minutes in the dark at room temperature in 1 ml of 7.5 μM PBS solution, washed once and assessed according to manufacturer's instructions. Mitochondrial ROS were assessed with mitosox red probe (thermofisher M36008) according to manufacturer's instructions. All flow cytometry analyses were performed on a LSR Fortessa X-20 flow cytometer (BD Biosciences) and all data analysed with FlowJo. Cell sorting was performed on a FACSAria Fusion 5 (BD Biosciences).

[8] = test system: mitochondria in MV4; 11 cells; experiment: Transmission electron microscopy of mitochondria; assay type: cell-based, human; settings: 500 nM, 16 h
Procedure: Cells were fixed in 2% GA in 0.1M sodium cacodylate buffer for 2 hours at room temperature, rinsed with 0.1M na-cacodylaatbuffer (5×10 min), and posffixation was done with 1% Osmium tetroxide and 1.5% Potassium ferricyanide for 2 hours at 4C in the dark. After rinsing in milliQ water, cells were stained with 0.5% Uranylacetate in MQ (±PH 4) for 1 h at 4° C. Cells were scraped and embedded in low melting agarose before serial dehydration in ethanol followed by propylene oxide and embedding into epon-araldyte resin. After polymerisation of the resin at 65 C for 48 hours, ultrathin sections were cut on a Leica UCT ultramicrotome and sections stained with uranyl acetate and lead citrate. Sections were examined on a Jeol JEM-1400Plus transmission electron microscope equipped with a Matataki flash camera at 80 keV.

WT MV4; 11 cell line [9] = experiment: PI cell death in medium with different glucose concentration; assay type: cell-based, human; settings: 500 nM, 48 h
Procedure: as §3

[10] = Mai et al., 2017; cited from earlier work
[11] = test system: primary AML samples derived from patients with venetoclax resistant or refractory disease; experiment: Primary patient synergy analysis (PI viability, Bliss); assay type: cell-based, human; settings: monotherapy, 1 μM, 5 days, five primary samples
Procedure: Samples were collected from patients with AML treated at the Alfred Hospital after obtaining informed consent. Studies were conducted in accordance with the approved protocols through the Human Research Ethics Committee of the Alfred Hospital and the Declaration of Helsinki for all subjects. Primary AML cells were cultured in StemSpan SFEM (Stemcell Technologies) supplemented with 10 ng/mL IL-3, 10 ng/mL IL-6, 50 ng/mL SCF and 50 ng/mL FLT3L (all Peprotech) and 35 nM UM171 and 500 nM stemreginin (StemCell Technologies). For primary patient synergy analyses, 50,000 AML cells were plated in each well of a 96-well plate, and cultured with escalating doses of ironomycin and venetoclax for 5 days in medium conditions as described above. After 5 days, viability was assessed via propidium iodide staining and flow cytometry (BD FACSCanto). Synergy was determined using the Bliss synergy model.

`C#CCN[C@@H]1C=C[C@]2(O[C@H]([C@@H](CC)C(=O)[C@@H](C)[C@@H](O)[C@H](C)[C@@H]3O[C@@H]([C@@H](CC)C(=O)O)CC[C@@H]3C)[C@@H](C)C[C@H]2C)O[C@@]12CC[C@@](C)([C@H]1CC[C@](O)(CC)[C@H](C)O1)O2` [Ironomycin] showed an IC50 (KG1) of 14 nM, an IC50 (KASUMI-1) of 16 nM and an IC50 (HL-60) of 26 nM. For the same compound, the IC50 (NOMO-1) was 30 nM, the IC50 (SKM-1) was 45 nM and the IC50 (NB4) was 47 nM. The IC50 (MV4-11) was 61 nM, the IC50 (MOLM-13) was 70 nM and the IC50 (OCI-AML3) was 118 nM. For the same compound, the IC50 (HEL 92.1.7) was 260 nM, the IC50 (K 562) was 410 nM and the IC50 (human AML cell lines) was 14 to 410 nM. For the same compound, the “cell death (PI staining)” value (AML cell lines) was “rapid cell death”, the proliferation (AML cell lines) was “proliferation block in a dose dependent manner” and the survival ([1]; ironomycin 1 mg/kg IP) was “did not result in any survival advantage”. The “cleavage of caspase 3 and PARP1” value [2] was “did not cleaved caspase 3 nor PARP1”, the cell death (WT MV4; 11 cell line [3]) was “induce cell death” and the lysosomal iron [4] was “increased lysosomal iron”. The “total iron in mitochondria” value [5] was “decrease in total iron into the mitochondria”, the “mitochondrial ROS” value [6] was “increased mitochondrial ROS” and the lipid peroxidation [7] was “induced a lipid peroxidation”. The cristae structure [8] was “disturbed the cristae structure”, the “efficacy in killing AML cells” value (WT MV4; 11 cell line [9]; increased glucose concentration) was “higher efficacy” and the “efficacy in killing AML cells” value (WT MV4; 11 cell line [9]; low glucose conditions) was “less efficient”. The “potency relative to Salinomycin” value [10] was “ten times more potent”.
In the case of Venetoclax [reference compound], the impaired cell viability [11] is reported as 6-40%, the survival ([1]; venetoclax 75 mg/kg oral gavage) is reported as “did not result in any survival advantage” and the cell death (WT MV4; 11 cell line [3]) is reported as “induce cell death”.
